Data set [1] can be described thus: Stability in pH 7.4 buffer (no enzyme). It counts as physicochemical. The note with it: read-out: T1/2 pH 7.4 Buffer. The protocol:
(§1) The human intestinal S9 with the absence of PMSF, human liver S9, rat intestinal S9, and rat liver S9 preparations were obtained from Xenotech (Lenexa, Kans.). The 500-μL incubation solution contained 0.8 mg/mL of enzyme (or no enzyme for buffer stability), 10 μM of test compounds in 100 mM of HEPES buffer, pH 7.4. The hydrolysis reactions were conducted in a 1-mL glass insert (Analytical Sales, Pompton Plains, N.J.) in a shake water bath at 37° C. At 0, 2, 5, 10, 15, 30 and 60 min, the reaction was terminated by pipetting 50 μL incubate to a 96 DeepWell plate (Thermo Fisher Scientific, Rochester, N.Y.) containing 100 μL of acetonitrile with 250 ng/mL of Carbutamide (Sigma-Aldrich, St. Louis, Miss.) as the internal standard. The crashed solutions were then vortexed well followed by centrifuge at 4000 rpm for 15 min at 4° C. The extract was transferred to a new 96 DeepWell plate for LC-MS/MS analysis.
(§2) LC-MS/MS analysis was done using an AB Sciex QTrap 6500 mass spectrometer under positive ionization mode, coupled to a Schimadzu Nexera LC system.
(§3) A Waters Atlantis T3 (3 μm, 3.0×50 mm) column was used for separation. The mobile phase consisted 0.1% formic acid in water (A) and 0.1% formic acid in acetonitrile (B) with a flow rate set at 1.2 mL/min. For the prodrug analysis, the Multiple Reaction Monitoring (MRM) specific for each compound was set up so that both prodrug and its hydrolyzed active can be monitored simultaneously.
(§4) Half-lives listed are based on disappearance of starting ester.

The nature of data set [2]: Stability/conversion of esters in rat liver S9. It counts as in vitro ADME. The protocol:
as §1, §2, §3, §4

Data set [3] in a line: Stability/conversion of esters in rat intestinal S9. It counts as in vitro ADME. The protocol: as §1, §2, §3, §4
Data set [4] in a line: Stability/conversion of esters in human intestinal S9. The class given is in vitro ADME. The protocol:
as §1, §2, §3, §4

Data set [5] can be described thus: Stability/conversion of esters in human liver S9. It counts as in vitro ADME. The protocol: as §1, §2, §3, §4
Data set [6] addresses TEM-1 (Class A beta-lactamase) (Escherichia coli, UniProt P62593). Nature of the data set: Inhibition of beta-lactamase enzymes (nitrocefin hydrolysis), TEM-1. The note with it: read-out: Class A TEM-1 60 min IC50, nitrocefin 100 μM. It counts as biochemical. The protocol:
(§5) A buffer consisting of 0.1 M sodium phosphate (pH 7.0), 10 mM NaHCO3, and 0.005% Triton X-100 was used for all enzymes. The chromogenic substrate nitrocefin (SynGene, Bangalore, India) was used at 100 μM. Enzyme activity was monitored by the 490 nm absorbance increase upon nitrocefin hydrolysis. Assays were performed in clear polystyrene 384-well plates (Greiner Bio-One, Monroe, N.C.). Absorbance was measured for 1 hour at 30-s intervals using a Spectramax absorbance plate reader (Molecular Devices, Sunnyvale, Calif.). Measurement of beta-lactamase inhibition by INHIBITOR employed serial 3-fold dilutions of the inhibitor in assay buffer, ranging from 100 μM to 62.7 pM. A background absorbance progress curve for a control lacking enzyme and inhibitor was subtracted from each progress curve.
(§6) The complete set of progress curves for one enzyme with all inhibitor concentrations was subjected to numerical integration with the program Kintek Global Kinetic Explorer (Kintek Corp, Snowshoe Pa.) to obtain a best-fit to the mechanism shown in Scheme 10.
(§7) where E, S, ES, P, I, and EI are the concentrations of the enzyme, nitrocefin, the enzyme-nitrocefin complex, the nitrocefin hydrolysis product, INHIBITOR, and the enzyme-INHIBITOR complex respectively. […] The values of k+2, k+3, and k−3 were fit. Concentration series offsets of the absorbance measurements were used to correct for slight absorbance baseline differences between wells. The parameter k+3 is equivalent to the second order rate constant kinact/Ki. In some cases, the inhibition was in rapid equilibrium on the experimental time scale, so that only the ratio k−3/k+3=Ki could be determined. Although k−3 represents reversal of inhibitor binding in Scheme 10, hydrolysis of the enzyme-inhibitor complex could not be excluded based on kinetic measurements.
(§8) Best-fit absorbance values from the above procedure at each time point for each compound concentration were exported to Excel.
(§9) where A is the best-fit absorbance without inhibitor and Ainhib is the best-fit absorbance in the presence of the inhibitor.
(§10) where [I] is the inhibitor concentration and n is the Hill coefficient. The Excel add-in XLfit (ID Business Solutions) was used for nonlinear regression.

In data set [7] the target is OXA-48 (Class D beta-lactamase) (Klebsiella pneumoniae, UniProt Q6XEC0). As to the kind of experiment: Inhibition of beta-lactamase enzymes (nitrocefin hydrolysis), OXA-48. The note with it: read-out: Class D OXA-48 60 min IC50, nitrocefin 100 μM. It counts as biochemical. As to the method: as §5, §6, §7, §8, §9, §10
OXA-48 (Class D beta-lactamase), sequence (Q6XEC0 whole entry, looked up, species assumed): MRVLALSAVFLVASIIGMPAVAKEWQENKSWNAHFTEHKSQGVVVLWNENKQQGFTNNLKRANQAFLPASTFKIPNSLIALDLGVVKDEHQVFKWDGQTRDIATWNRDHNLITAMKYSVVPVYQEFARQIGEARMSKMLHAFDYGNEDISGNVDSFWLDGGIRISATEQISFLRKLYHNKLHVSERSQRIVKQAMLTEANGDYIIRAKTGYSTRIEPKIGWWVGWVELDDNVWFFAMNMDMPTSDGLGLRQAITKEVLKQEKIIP
The mark [8] stands for this setting: s9, pH 7.4, read-out: T1/2 Rat Liver S9.
Where [9] appears, read: s9, pH 7.4, read-out: T1/2 Rat Intestinal S9.
[10] abbreviates: s9, pH 7.4, read-out: T1/2 Human Intestinal S9.
Where [11] appears, read: liver S9, pH 7.4, read-out: T1/2 Human Liver S9.
Setting [12] is: liver S9, pH 7.4, read-out: T1/2 Rat Liver S9.
Setting [13] is: intestinal S9, pH 7.4, read-out: T1/2 Rat Intestinal S9.
The mark [14] stands for this setting: intestinal S9 (without PMSF), pH 7.4, read-out: T1/2 Human Intestinal S9.
The mark [15] stands for this setting: s9, pH 7.4, read-out: T1/2 Human Liver S9.

Structures are written as SMILES. Structures can show the parent of a compound that is named as a salt.

TEM-1 (Class A beta-lactamase), sequence (P62593 whole entry, looked up, species assumed): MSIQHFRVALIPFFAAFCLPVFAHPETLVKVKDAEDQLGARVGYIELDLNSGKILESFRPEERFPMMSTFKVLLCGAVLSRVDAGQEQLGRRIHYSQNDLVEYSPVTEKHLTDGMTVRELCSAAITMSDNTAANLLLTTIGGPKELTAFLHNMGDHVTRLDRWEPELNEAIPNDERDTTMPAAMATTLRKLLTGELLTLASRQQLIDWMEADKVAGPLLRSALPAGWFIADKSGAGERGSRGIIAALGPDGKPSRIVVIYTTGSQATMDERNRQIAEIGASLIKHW

For the compound `CCOC(=O)[C@@H](F)ON1C(=O)N2C[C@H]1C(C)=C[C@H]2C#N` [Example 94, ethyl (2R)-2-(((2S,5R)-2-cyano-4-methyl-7-oxo-1,6-diazabicyclo[3.2.1]oct-3-en-6-yl)oxy)-2-fluoroacetate], the half-life at 10 μM was 46.9 min in data set [1] (buffer), 1.3 min in data set [2] (setting [8]), 25.9 min in data set [3] (setting [9]) and 10.6 min in data set [4] (setting [10]).

For the compound `CC1=C[C@@H]2CN(C(=O)N2O[C@H](F)C(=O)OCOC(=O)C(C)(C)C)[C@@H]1C(N)=O` [Example 64, [(2R)-2-[[(2S,5R)-2-carbamoyl-3-methyl-7-oxo-1,6-diazabicyclo[3.2.1]oct-3-en-6-yl]oxy]-2-fluoro-acetyl]oxymethyl 2,2-dimethylpropanoate], the half-life at 10 μM in data set [5] (setting [11]) is less than 1 min; in data set [1] (HEPES buffer without enzyme), 1.2 min; in data set [2] (setting [12]), less than 1 min; in data set [3] (setting [13]), 1.1 min; in data set [4] (setting [14]) it was less than 1 min.

Consider `CC[C@H](C)OC(=O)[C@@H](F)ON1C(=O)N2C[C@H]1C=C(C)[C@H]2C(N)=O` [Example 20, (2R)-(S)-sec-butyl 2-(((2S,5R)-2-carbamoyl-3-methyl-7-oxo-1,6-diazabicyclo[3.2.1]oct-3-en-6-yl)oxy)-2-fluoroacetate], for which the half-life at 10 μM in data set [5] (setting [15]) was determined as 5.1 min; in data set [1] (buffer), 39 min; in data set [2] (setting [8]), 6.1 min; in data set [3] (setting [9]) it was 54 min; in data set [4] (setting [10]), 40 min.

Regarding `CCCCCOC(=O)[C@@H](F)ON1C(=O)N2C[C@H]1C=C(C)[C@H]2C(N)=O` [Example 51, pentyl (2R)-2-[[(2S,5R)-2-carbamoyl-3-methyl-7-oxo-1,6-diazabicyclo[3.2.1]oct-3-en-6-yl]oxy]-2-fluoro-acetate], the half-life at 10 μM in data set [5] (setting [11]) was determined as 6.4 min; in data set [1] (HEPES buffer without enzyme) it was 75 min; in data set [2] (setting [12]), 1.7 min; in data set [3] (setting [13]), 4.1 min; in data set [4] (setting [14]), 1.5 min.

For the compound `CC1=C[C@@H]2CN(C(=O)N2O[C@@H](F)C(=O)OC(C)C)[C@@H]1C(N)=O` [Example 13, propan-2-yl (2S)-{[(2S,5R)-2-carbamoyl-3-methyl-7-oxo-1,6-diazabicyclo[3.2.1]oct-3-en-6-yl]oxy}(fluoro)ethanoate], the half-life at 10 μM worked out at 1 min in data set [5] (setting [11]), 55 min in data set [1] (HEPES buffer without enzyme) and 44 min in data set [4] (setting [14]).

Consider `CCC(CC)OC(=O)[C@@H](F)ON1C(=O)N2C[C@H]1C=C(C)[C@H]2C(N)=O` [Example 24, (R)-pentan-3-yl 2-((2S,5R)-2-carbamoyl-3-methyl-7-oxo-1,6-diazabicyclo[3.2.1]oct-3-en-6-yloxy)-2-fluoroacetate], for which the values for the half-life at 10 μM in data set [5] (setting [15]), in data set [1] (buffer) and in data set [4] (setting [10]) were 9 min, greater than 100 min and 34 min, respectively.

Take `CC1=C[C@@H]2CN(C(=O)N2O[C@@H](F)C(=O)O)[C@@H]1C(=O)NOCC1CC1` [Example 70, (2S)-2-[[(2S,5R)-2-(cyclopropylmethoxycarbamoyl)-3-methyl-7-oxo-1,6-diazabicyclo[3.2.1]oct-3-en-6-yl]oxy]-2-fluoro-acetic acid lithium salt]: the values for the IC50 in data set [6] and in data set [7] were 26 nM and 87 nM, respectively.

For the compound `CC1=C[C@@H]2CN(C(=O)N2O[C@@H](F)C(=O)O)[C@@H]1C(=O)NCc1ncco1` [Example 68, (2S)-2-fluoro-2-[[(2S,5R)-3-methyl-2-(oxazol-2-ylmethylcarbamoyl)-7-oxo-1,6-diazabicyclo[3.2.1]oct-3-en-6-yl]oxy]lacetic acid lithium salt], the values for the half-maximal inhibitory concentration (IC50) in data set [6] and in data set [7] were 310 nM and 78 nM, respectively.

As to `CC1=C[C@@H]2CN(C(=O)N2OC(F)(F)C(=O)O)[C@@H]1C(N)=O` [Example 8, {[(2S,5R)-2-carbamoyl-3-methyl-7-oxo-1,6-diazabicyclo[3.2.1]oct-3-en-6-yl]oxy}(difluoro)acetic acid lithium salt], the half-inhibitory concentration (IC50) in data set [6] came to 1.5 nM; in data set [7], 14 nM.

On to `CC(=O)NCNC(=O)[C@@H]1C(C)=C[C@@H]2CN1C(=O)N2O[C@@H](F)C(=O)O` [Example 88, (2S)-2-fluoro-2-[[(2S,5R)-2-(acetamidomethylcarbamoyl)-3-methyl-7-oxo-1,6-diazabicyclo[3.2.1]oct-3-en-6-yl]oxy]acetic acid lithium salt], for which the half-maximal inhibitory concentration (IC50) is 54 nM in data set [6] and 45 nM in data set [7].

As to `CC1=C[C@@H]2CN(C(=O)N2O[C@@H](F)C(=O)O)[C@@H]1C(=O)NOC[C@@H]1CCC(=O)N1` [Example 72, (2S)-2-fluoro-2-[[(2S,5R)-3-methyl-7-oxo-2-[(5-oxopyrrolidin-2-yl)methoxycarbamoyl]-1,6-diazabicyclo[3.2.1]oct-3-en-6-yl]oxy]acetic acid lithium salt], the figures for the IC50 in data set [6] and in data set [7] were 77 nM and 110 nM, respectively.

`CC1=C[C@@H]2CN(C(=O)N2O[C@@H](F)C(=O)O)[C@@H]1C(=O)NCCCS(N)(=O)=O` [Example 74, (2S)-2-fluoro-2-[[(2S,5R)-3-methyl-7-oxo-2-(3-sulfamoylpropylcarbamoyl)-1,6-diazabicyclo[3.2.1]oct-3-en-6-yl]oxy]acetic acid lithium salt]: the 50% inhibitory concentration (IC50) in data set [6] is 280 nM; in data set [7] it was 590 nM.

Consider `CC1=C[C@@H]2CN(C(=O)N2O[C@@H](F)C(=O)O)[C@@H]1C(=O)NCCNS(C)(=O)=O` [Example 67, (2S)-2-fluoro-2-[[(2S,5R)-2-[2-(methanesulfonamido)ethylcarbamoyl]-3-methyl-7-oxo-1,6-diazabicyclo[3.2.1]oct-3-en-6-yl]oxy]acetic acid lithium salt], for which the IC50 in data set [6] is 64 nM; in data set [7] it was 340 nM.

Turning to `CC1=C[C@@H]2CN(C(=O)N2OCC(=O)O)[C@@H]1C(N)=O` [Example 10, {[(2S,5R)-2-carbamoyl-3-methyl-7-oxo-1,6-diazabicyclo[3.2.1]oct-3-en-6-yl]oxy}acetic acid lithium salt], the IC50 in data set [6] turned out to be 430 nM; in data set [7], 51 nM.

Turning to `CC1=C[C@@H]2CN(C(=O)N2O[C@@H](F)C(=O)O)[C@@H]1CNC(=O)OC(C)(C)C` [Example 76, (2S)-2-[[(2S,5R)-2-[tert-butoxycarbonylamino)methyl]-3-methyl-7-oxo-1,6-diazabicyclo[3.2.1]oct-3-en-6-yl]oxy]-2-fluoro-acetic acid lithium salt], the 50% inhibitory concentration (IC50) in data set [6] turned out to be 940 nM; in data set [7] it was 220 nM.

On to `CC1=C[C@@H](C(N)=O)N2C[C@@H]1N(OC(F)(F)C(=O)O)C2=O` [Example 91, 2-(((2S,5R)-2-carbamoyl-4-methyl-7-oxo-1,6-diazabicyclo[3.2.1]oct-3-en-6-yl)oxy)-2,2-difluoroacetic acid lithium salt], for which the results for the IC50 in data set [6] and in data set [7] were 0.47 nM and 18 nM, respectively.
